From US6365634B1, “Naturally occurring compounds and their derivatives as cyclooxygenase 2 and/or 5-lipoxygenase inhibitors” (C-P Technology Limited Partnership, priority 1997, dated 2002)

How the values were obtained:
[1] = molecular target: T1, human recombinant COX II (Homo sapiens, UniProt P35354); assay: COX II biochemical assay (3H-arachidonic acid conversion, TLC quantitation)
T1 construct: purchased Oxford Chemical
T1 sequence (P35354 18-604): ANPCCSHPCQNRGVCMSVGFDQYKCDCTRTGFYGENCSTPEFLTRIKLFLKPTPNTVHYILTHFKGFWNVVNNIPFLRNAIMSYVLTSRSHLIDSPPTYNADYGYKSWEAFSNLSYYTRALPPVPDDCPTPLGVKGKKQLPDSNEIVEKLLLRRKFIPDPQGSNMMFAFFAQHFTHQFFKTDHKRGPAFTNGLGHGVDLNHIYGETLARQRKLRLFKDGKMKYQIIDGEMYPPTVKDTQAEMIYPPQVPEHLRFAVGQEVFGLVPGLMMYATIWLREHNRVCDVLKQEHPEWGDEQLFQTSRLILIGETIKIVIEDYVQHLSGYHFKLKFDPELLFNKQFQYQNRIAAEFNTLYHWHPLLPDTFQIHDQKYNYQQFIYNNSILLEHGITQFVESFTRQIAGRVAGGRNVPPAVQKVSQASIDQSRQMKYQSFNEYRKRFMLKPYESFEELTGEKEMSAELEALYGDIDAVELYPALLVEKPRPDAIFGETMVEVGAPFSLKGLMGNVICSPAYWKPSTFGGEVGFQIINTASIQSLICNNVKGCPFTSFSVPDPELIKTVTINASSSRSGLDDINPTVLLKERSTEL
Method: Two units of recombinant COX II enzyme (corresponding to 0.8 ug total protein) was added followed by 5 uL aliquots of the peat bog extracts yielding a final concentration of the peat extracts of 25 ug/ml. All samples were run in duplicate. […] Reactions were initiated by the addition of ^3H-arachidonic acid (DuPont-NEN) at a final concentration of 50 uM. The reactions were maintained for 5 minutes at 37° C. and stopped by the addition of ice-cold methanol/acetic acid (10:1 v/v).
The assessment of cyclooxygenase activity (both COX I and II) in the presence and absence of the peat bog extracts was based on the quantitation of tlhe radiolabeled arachidonic acid metabolites prostaglandin A2 (PGA2), PGE2, and PGF2-alpha. To do this, a 50 uL sample of each reaction solution was separated via TLC on LK6DF silica plates co-spotted with arachidonic acid, PGA2, and PGF2-alpha and developed in hexane/isopropyl alcohol/ acetic acid (85:15:1 v/v). The bands were visualized by UV-vis or I2 staining and scraped into scintillation vials for quantitation. […] The total enzyme activity (At), the corrected enzyme activity in the presence of an inhibitor (Ai), and % inhibition were calculated by the following equations:
3) Percent Inhibition=100 (1−Ai/ At)

[2] = molecular target: T2, ovine COX I (Ovis aries, UniProt P05979); assay: COX I biochemical assay (ram seminal vesicle preparation)
T2 construct: a ram seminal vesicle preparation enriched in COX I (Biomol) was used; tissue Biomol; host or cells: ram seminal vesicle
T2 sequence (P05979 25-600): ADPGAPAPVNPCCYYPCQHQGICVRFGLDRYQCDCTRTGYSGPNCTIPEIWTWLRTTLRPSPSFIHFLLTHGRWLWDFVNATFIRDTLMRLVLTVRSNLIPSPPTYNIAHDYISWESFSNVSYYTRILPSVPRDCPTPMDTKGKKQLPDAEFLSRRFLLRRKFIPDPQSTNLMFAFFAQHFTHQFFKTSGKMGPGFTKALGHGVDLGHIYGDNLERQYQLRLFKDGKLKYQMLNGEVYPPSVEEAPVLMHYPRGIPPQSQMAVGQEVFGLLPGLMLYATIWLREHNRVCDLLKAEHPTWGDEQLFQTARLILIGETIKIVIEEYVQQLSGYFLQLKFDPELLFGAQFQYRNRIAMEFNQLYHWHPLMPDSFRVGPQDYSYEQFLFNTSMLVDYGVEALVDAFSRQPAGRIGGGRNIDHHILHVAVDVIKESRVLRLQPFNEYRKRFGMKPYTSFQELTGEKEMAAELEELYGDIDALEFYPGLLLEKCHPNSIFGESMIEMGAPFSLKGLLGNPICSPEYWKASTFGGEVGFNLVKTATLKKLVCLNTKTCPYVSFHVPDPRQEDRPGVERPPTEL
Method: Both the COX I and COX II assays were performed using modified versions of previously reported methods (Corey, E. J., Shih, C., and Cashman, J. R., 1983 Proc. Natl. Acad. Sci. v80, p3; Sigal, E., Grunberger, D., Cashman, J. R., Craik, C. S., Caughey, G. H., and Nadel, J. A., 1988 Biochem. Biophys. Res Comm. v150(1), p376). To assess for the presence of compounds in the peat bog extracts that were capable of inhibiting COX II, purified human recombinant COX II (Oxford Chemical) was suspended in 50 uL of COX assay buffer (50 mM Tris, pH 8.0) containing 0.2 mM hydroquinone, 5.0 mM tryptophan, 1.0 uM hematin, and 1.0 mM glutathione. […]
The assessment of cyclooxygenase activity (both COX I and II) in the presence and absence of the peat bog extracts was based on the quantitation of tlhe radiolabeled arachidonic acid metabolites prostaglandin A2 (PGA2), PGE2, and PGF2-alpha. […] The bands were visualized by UV-vis or I2 staining and scraped into scintillation vials for quantitation. […] The total enzyme activity (At), the corrected enzyme activity in the presence of an inhibitor (Ai), and % inhibition were calculated by the following equations: […]
The inhibitory activity of dehydroabietic acid methyl ester was assessed by performing biochemical assays that utilized 1) human recombinant COX II, 2) ovine COX I, and 3) rabbit reticulocyte 15-LO. […]

[3] = pure 4-cumylphenol, assay as Example 2B, concentration not given

| SMILES | Percent Inhibition of COX II [1, 3] [%] | Percent Inhibition of COX I [2, 3] [%] | inhibited COX II preferentially over COX I by ([1]; 250 uM, difference of percent inhibition COX II versus COX I) | Percent Inhibition of COX II ([1]; final concentration of 250 uM) [%] | Percent Inhibition of COX I ([2]; final concentration of 250 uM) [%] |
| --- | --- | --- | --- | --- | --- |
| CC(C)(c1ccccc1)c1ccc(O)cc1 [4-Cumylphenol, 4-cumylphenol] | 22.4 | 1.6 | – | – | – |
| COC(=O)[C@]1(C)CCC[C@]2(C)c3ccc(C(C)C)cc3CC[C@@H]12 [Dehydroabietic acid methyl ester, dehydroabietic acid methyl ester] | – | – | over 30% | 31.5 | 0.2 |
